Results from article PMC6891286, “Towards the Development of an In vivo Chemical Probe for Cyclin G Associated Kinase (GAK)” (Molecules, 2019).

Assays:
Experiment in all cases: KINOMEscan
Format in all cases: binding
Conditions in all cases: 35 at 1 µM; read-out: % inhibition
[1] = biological target: T1, BMPR1A (Homo sapiens, UniProt P36894)
T1 construct: purchased Eurofins DiscoverX (KINOMEscan)
Method: (§1) KinomeScan Assay on 35 was performed as previously described at EuroFins DiscoverX (Fremont, CA, USA).

[2] = biological target: T2, DYRK1A (Homo sapiens, UniProt Q13627)
T2 construct: purchased Eurofins DiscoverX (KINOMEscan)
Method: as §1

[3] = biological target: T3, ABL1(T315I)-nonphosphorylated (Homo sapiens, UniProt P00519, T315I)
T3 construct: purchased Eurofins DiscoverX (KINOMEscan)
Method: as §1

[4] = biological target: T4, MAP4K4 (Homo sapiens, UniProt O95819)
T4 construct: purchased Eurofins DiscoverX (KINOMEscan)
Method: as §1

[5] = biological target: T5, AMPK-alpha1 (Homo sapiens, UniProt Q13131)
T5 construct: purchased Eurofins DiscoverX (KINOMEscan)
Method: as §1

[6] = biological target: T6, RET(V804L) (Homo sapiens, UniProt P07949, V804L)
T6 construct: purchased Eurofins DiscoverX (KINOMEscan)
Method: as §1

[7] = biological target: T7, TXK (Homo sapiens, UniProt P42681)
T7 construct: purchased Eurofins DiscoverX (KINOMEscan)
Method: as §1

[8] = biological target: T8, BRAF (Homo sapiens, UniProt P15056)
T8 construct: purchased Eurofins DiscoverX (KINOMEscan)
Method: as §1

[9] = biological target: T9, TAOK3 (Homo sapiens, UniProt Q9H2K8)
T9 construct: purchased Eurofins DiscoverX (KINOMEscan)
Method: as §1

[10] = biological target: T10, GRK2 (Homo sapiens, UniProt P25098)
T10 construct: purchased Eurofins DiscoverX (KINOMEscan)
Method: as §1

[11] = biological target: T11, MYLK2 (Homo sapiens, UniProt Q9H1R3)
T11 construct: purchased Eurofins DiscoverX (KINOMEscan)
Method: as §1

[12] = biological target: T12, LIMK2 (Homo sapiens, UniProt P53671)
T12 construct: purchased Eurofins DiscoverX (KINOMEscan)
Method: as §1

[13] = biological target: T13, AURKA (Homo sapiens, UniProt O14965)
T13 construct: purchased Eurofins DiscoverX (KINOMEscan)
Method: as §1

[14] = biological target: T14, CDKL2 (Homo sapiens, UniProt Q92772)
T14 construct: purchased Eurofins DiscoverX (KINOMEscan)
Method: as §1

[15] = biological target: T15, ACVR2A (Homo sapiens, UniProt P27037)
T15 construct: purchased Eurofins DiscoverX (KINOMEscan)
Method: as §1

[16] = biological target: T16, PAK4 (Homo sapiens, UniProt O96013)
T16 construct: purchased Eurofins DiscoverX (KINOMEscan)
T16 sequence (O96013 whole entry): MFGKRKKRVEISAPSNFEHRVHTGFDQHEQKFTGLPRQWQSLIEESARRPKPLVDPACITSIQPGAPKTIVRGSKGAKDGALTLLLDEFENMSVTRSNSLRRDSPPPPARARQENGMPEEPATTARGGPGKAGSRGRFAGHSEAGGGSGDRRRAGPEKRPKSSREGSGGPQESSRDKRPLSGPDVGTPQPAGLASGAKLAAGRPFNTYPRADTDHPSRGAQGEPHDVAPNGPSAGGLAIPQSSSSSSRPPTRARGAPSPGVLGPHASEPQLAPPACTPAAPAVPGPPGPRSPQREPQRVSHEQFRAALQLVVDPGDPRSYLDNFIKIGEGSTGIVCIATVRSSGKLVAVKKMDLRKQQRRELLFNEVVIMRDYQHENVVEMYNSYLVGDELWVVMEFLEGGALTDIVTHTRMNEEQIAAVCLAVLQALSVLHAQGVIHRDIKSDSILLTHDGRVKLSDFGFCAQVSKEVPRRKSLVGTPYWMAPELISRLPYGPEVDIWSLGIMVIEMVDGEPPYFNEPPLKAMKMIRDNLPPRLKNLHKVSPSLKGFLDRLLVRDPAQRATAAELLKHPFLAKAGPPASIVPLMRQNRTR
Method: as §1

[17] = biological target: T17, EPHA3 (Homo sapiens, UniProt P29320)
T17 construct: purchased Eurofins DiscoverX (KINOMEscan)
Method: as §1

[18] = biological target: T18, WEE2 (Homo sapiens, UniProt P0C1S8)
T18 construct: purchased Eurofins DiscoverX (KINOMEscan)
T18 sequence (P0C1S8 whole entry): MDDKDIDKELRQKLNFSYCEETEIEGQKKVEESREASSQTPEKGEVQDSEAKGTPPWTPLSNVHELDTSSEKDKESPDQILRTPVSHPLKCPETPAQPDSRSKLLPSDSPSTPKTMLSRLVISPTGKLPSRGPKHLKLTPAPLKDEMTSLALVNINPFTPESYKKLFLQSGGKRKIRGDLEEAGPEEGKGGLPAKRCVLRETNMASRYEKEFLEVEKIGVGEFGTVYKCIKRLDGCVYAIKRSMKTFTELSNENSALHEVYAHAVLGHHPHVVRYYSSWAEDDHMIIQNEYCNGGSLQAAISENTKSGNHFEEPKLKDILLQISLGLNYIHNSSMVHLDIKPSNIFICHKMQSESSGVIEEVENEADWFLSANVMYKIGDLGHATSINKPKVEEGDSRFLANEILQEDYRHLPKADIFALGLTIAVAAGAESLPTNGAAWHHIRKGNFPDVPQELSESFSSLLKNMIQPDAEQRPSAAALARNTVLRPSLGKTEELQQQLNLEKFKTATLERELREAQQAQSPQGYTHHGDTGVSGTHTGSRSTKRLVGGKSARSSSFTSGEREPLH
Method: as §1

[19] = biological target: T19, EGFR(L747-E749del, A750P) (Homo sapiens, UniProt P00533, A750P/DEL747-749)
T19 construct: purchased Eurofins DiscoverX (KINOMEscan)
Method: as §1

[20] = biological target: T20, CLK3 (Homo sapiens, UniProt P49761)
T20 construct: purchased Eurofins DiscoverX (KINOMEscan)
Method: as §1

[21] = biological target: T21, MAPKAPK2 (Homo sapiens, UniProt P49137)
T21 construct: purchased Eurofins DiscoverX (KINOMEscan)
T21 sequence (P49137 whole entry): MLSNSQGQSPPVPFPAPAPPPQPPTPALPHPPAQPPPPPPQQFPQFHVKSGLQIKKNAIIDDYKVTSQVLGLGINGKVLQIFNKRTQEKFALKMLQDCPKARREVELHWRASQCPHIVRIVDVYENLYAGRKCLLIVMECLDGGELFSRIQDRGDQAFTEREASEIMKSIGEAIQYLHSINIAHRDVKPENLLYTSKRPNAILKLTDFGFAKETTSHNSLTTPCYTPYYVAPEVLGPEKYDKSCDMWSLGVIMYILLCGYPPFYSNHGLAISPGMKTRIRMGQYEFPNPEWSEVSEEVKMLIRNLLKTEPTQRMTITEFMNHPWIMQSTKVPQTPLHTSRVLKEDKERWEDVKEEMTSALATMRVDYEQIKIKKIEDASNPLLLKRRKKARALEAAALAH
Method: as §1

[22] = biological target: T22, SGK2 (Homo sapiens, UniProt Q9HBY8)
T22 construct: purchased Eurofins DiscoverX (KINOMEscan)
T22 sequence (Q9HBY8 whole entry): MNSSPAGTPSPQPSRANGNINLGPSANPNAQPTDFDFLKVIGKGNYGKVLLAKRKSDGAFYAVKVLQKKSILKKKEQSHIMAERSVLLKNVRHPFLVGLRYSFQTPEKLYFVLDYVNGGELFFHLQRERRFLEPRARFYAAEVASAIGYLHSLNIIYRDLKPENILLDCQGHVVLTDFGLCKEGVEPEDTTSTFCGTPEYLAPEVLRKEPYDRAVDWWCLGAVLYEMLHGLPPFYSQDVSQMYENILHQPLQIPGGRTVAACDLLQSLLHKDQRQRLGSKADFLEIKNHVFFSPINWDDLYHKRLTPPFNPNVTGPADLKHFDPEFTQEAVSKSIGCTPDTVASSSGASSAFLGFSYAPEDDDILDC
Method: as §1

[23] = biological target: T23, PRP4 (Homo sapiens, UniProt Q13523)
T23 construct: purchased Eurofins DiscoverX (KINOMEscan)
Method: as §1

[24] = biological target: T24, EPHA2 (Homo sapiens, UniProt P29317)
T24 construct: purchased Eurofins DiscoverX (KINOMEscan)
Method: as §1

[25] = biological target: T25, PIK3C2G (Homo sapiens, UniProt O75747)
T25 construct: purchased Eurofins DiscoverX (KINOMEscan)
Method: as §1

[26] = biological target: T26, CHEK2 (Homo sapiens, UniProt O96017)
T26 construct: purchased Eurofins DiscoverX (KINOMEscan)
Method: as §1

[27] = biological target: T27, FES (Homo sapiens, UniProt P07332)
T27 construct: purchased Eurofins DiscoverX (KINOMEscan)
Method: as §1

[28] = biological target: T28, PRKD3 (Homo sapiens, UniProt O94806)
T28 construct: purchased Eurofins DiscoverX (KINOMEscan)
Method: as §1

[29] = biological target: T29, PIK3CB (Homo sapiens, UniProt P42338)
T29 construct: purchased Eurofins DiscoverX (KINOMEscan)
Method: as §1

[30] = biological target: T30, RPS6KA4(Kin.Dom.1-N-terminal) (Homo sapiens, UniProt O75676)
T30 construct: RPS6KA4(Kin.Dom.1-N-terminal); purchased Eurofins DiscoverX (KINOMEscan)
Method: as §1

[31] = biological target: T31, TESK1 (Homo sapiens, UniProt Q15569)
T31 construct: purchased Eurofins DiscoverX (KINOMEscan)
T31 sequence (Q15569 whole entry): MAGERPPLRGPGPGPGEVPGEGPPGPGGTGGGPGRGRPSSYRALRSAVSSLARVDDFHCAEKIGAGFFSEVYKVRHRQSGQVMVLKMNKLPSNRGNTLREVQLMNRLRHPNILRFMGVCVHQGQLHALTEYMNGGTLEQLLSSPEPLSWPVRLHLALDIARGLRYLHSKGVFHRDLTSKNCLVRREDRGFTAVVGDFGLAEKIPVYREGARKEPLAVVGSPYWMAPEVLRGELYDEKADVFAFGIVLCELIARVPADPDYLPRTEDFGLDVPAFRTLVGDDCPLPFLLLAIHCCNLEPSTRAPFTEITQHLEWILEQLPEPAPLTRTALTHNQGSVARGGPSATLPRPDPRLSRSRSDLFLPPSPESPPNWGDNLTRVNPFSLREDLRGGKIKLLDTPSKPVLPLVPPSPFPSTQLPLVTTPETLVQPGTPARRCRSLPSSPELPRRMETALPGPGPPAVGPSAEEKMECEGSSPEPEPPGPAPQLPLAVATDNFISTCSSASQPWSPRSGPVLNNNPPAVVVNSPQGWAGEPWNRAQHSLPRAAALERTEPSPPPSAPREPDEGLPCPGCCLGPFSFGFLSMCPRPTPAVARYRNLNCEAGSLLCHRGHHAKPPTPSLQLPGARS
Method: as §1

[32] = biological target: T32, YANK2 (Homo sapiens, UniProt Q9NY57)
T32 construct: purchased EuroFins DiscoverX (Fremont, CA, USA)
T32 sequence (Q9NY57 whole entry): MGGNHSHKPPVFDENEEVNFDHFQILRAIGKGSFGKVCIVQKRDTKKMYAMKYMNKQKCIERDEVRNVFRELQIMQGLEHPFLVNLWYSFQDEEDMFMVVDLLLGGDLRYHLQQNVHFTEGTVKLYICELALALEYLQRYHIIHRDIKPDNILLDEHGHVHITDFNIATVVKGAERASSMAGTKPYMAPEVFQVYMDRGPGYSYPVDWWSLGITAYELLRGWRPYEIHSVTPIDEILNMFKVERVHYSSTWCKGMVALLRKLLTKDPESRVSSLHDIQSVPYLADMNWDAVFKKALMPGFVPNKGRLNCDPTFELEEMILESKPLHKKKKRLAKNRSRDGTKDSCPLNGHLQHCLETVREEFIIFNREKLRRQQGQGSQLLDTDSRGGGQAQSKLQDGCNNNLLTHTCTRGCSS
Method: as §1

[33] = biological target: T33, TAOK2 (Homo sapiens, UniProt Q9UL54)
T33 construct: purchased Eurofins DiscoverX (KINOMEscan)
Method: as §1

[34] = biological target: T34, STK35 (Homo sapiens, UniProt Q8TDR2)
T34 construct: purchased Eurofins DiscoverX (KINOMEscan)
Method: as §1

[35] = biological target: T35, WNK4 (Homo sapiens, UniProt Q96J92)
T35 construct: purchased EuroFins DiscoverX (Fremont, CA, USA)
T35 sequence (Q96J92 whole entry): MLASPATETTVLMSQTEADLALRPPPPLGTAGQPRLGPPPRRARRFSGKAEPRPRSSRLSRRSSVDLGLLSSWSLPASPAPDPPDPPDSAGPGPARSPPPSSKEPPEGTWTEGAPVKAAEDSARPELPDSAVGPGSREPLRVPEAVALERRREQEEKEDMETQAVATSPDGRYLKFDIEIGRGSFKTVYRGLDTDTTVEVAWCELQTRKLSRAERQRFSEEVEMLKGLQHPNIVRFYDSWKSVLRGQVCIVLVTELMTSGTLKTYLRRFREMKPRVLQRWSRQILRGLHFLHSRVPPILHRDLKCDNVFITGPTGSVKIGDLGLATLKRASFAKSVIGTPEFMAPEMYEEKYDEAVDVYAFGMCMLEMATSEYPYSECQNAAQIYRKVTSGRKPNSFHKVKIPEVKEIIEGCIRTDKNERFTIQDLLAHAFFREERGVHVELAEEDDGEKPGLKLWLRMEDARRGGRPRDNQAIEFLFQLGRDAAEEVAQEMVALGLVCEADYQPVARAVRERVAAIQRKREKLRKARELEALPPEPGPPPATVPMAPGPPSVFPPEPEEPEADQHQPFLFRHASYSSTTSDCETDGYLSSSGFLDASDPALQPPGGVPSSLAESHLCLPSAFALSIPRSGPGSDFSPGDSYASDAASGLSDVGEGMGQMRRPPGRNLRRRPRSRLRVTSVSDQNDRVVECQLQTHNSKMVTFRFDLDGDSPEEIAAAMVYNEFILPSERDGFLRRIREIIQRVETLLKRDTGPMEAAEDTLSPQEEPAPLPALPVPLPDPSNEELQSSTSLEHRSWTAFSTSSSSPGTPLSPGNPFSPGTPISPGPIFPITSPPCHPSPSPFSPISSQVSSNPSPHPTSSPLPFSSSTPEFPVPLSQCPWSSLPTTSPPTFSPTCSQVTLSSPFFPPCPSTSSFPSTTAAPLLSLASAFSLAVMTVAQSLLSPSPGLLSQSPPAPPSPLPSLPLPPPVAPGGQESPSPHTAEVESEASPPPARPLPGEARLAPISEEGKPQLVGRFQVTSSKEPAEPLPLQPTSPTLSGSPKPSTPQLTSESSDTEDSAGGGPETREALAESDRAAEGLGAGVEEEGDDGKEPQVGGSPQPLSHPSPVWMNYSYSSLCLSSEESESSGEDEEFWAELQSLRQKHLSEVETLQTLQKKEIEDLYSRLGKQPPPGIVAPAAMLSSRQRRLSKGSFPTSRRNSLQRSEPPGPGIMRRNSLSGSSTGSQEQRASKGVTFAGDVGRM
Method: as §1

[36] = biological target: T36, PIK3CA(I800L) (Homo sapiens, UniProt P42336, I800L)
T36 construct: purchased Eurofins DiscoverX (KINOMEscan)
Method: as §1

[37] = biological target: T37, ALK(L1196M) (Homo sapiens, UniProt Q9UM73, L1196M)
T37 construct: purchased Eurofins DiscoverX (KINOMEscan)
Method: as §1

[38] = biological target: T38, PAK2 (Homo sapiens, UniProt Q13177)
T38 construct: purchased Eurofins DiscoverX (KINOMEscan)
Method: as §1

[39] = biological target: T39, CSNK1A1 (Homo sapiens, UniProt P48729)
T39 construct: purchased Eurofins DiscoverX (KINOMEscan)
T39 sequence (P48729 whole entry): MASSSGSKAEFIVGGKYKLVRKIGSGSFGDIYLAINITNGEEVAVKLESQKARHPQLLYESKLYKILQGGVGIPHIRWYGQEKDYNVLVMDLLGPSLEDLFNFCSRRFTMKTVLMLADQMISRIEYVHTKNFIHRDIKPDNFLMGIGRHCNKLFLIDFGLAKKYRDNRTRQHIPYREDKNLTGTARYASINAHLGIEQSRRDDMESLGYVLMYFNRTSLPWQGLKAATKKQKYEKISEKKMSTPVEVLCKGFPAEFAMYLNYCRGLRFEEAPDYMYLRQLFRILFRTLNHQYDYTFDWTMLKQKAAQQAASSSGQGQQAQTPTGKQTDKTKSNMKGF
Method: as §1

[40] = biological target: T40, EGFR(T790M) (Homo sapiens, UniProt P00533, T790M)
T40 construct: purchased Eurofins DiscoverX (KINOMEscan)
Method: as §1

[41] = biological target: T41, GCN2(Kin.Dom.2,S808G) (Homo sapiens, UniProt Q9P2K8, S808G)
T41 construct: GCN2(Kin.Dom.2,S808G); purchased Eurofins DiscoverX (KINOMEscan)
T41 sequence (Q9P2K8 585-1001 S808G limits assumed): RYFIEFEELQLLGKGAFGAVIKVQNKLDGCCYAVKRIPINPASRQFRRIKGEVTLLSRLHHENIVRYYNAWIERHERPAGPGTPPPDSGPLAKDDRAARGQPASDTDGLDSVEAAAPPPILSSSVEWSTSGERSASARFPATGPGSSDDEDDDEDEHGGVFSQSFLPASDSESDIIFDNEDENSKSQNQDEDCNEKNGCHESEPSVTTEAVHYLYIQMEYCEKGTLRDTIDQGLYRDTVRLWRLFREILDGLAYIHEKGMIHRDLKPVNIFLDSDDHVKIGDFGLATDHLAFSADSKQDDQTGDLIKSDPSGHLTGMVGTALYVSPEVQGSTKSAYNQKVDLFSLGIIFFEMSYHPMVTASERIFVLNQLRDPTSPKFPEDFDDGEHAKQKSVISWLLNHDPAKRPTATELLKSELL
Method: as §1

For `Brc1ccc2nccc(Nc3ccc4cn[nH]c4c3)c2c1` [Compound 35, 6-Bromo-N-(1H-indazol-6-yl)quinolin-4-amine], which activity at 1 µM [1] is on record?
The activity at 1 µM was 100%.

And the activity at 1 µM [2]?
The activity at 1 µM was 77%.

And the activity at 1 µM [3]?
The activity at 1 µM was 100%.

What about the activity at 1 µM [4] of the same compound?
Its activity at 1 µM is 100%.

What about the activity at 1 µM [5] of the same compound?
The activity at 1 µM was 100%.

And the activity at 1 µM [6]?
The activity at 1 µM was 97%.

What about the activity at 1 µM [7] of the same compound?
The activity at 1 µM was 100%.

What about the activity at 1 µM [8] of the same compound?
The activity at 1 µM was 92%.

And the activity at 1 µM [9]?
Its activity at 1 µM is 97%.

And the activity at 1 µM [10]?
The activity at 1 µM was 100%.

What about the activity at 1 µM [11] of the same compound?
The activity at 1 µM was 100%.

And the activity at 1 µM [12]?
Its activity at 1 µM is 100%.

And the activity at 1 µM [13]?
Its activity at 1 µM is 100%.

What about the activity at 1 µM [14] of the same compound?
Its activity at 1 µM is 100%.

What about the activity at 1 µM [15] of the same compound?
Its activity at 1 µM is 100%.

What about the activity at 1 µM [16] of the same compound?
The activity at 1 µM was 100%.

What about the activity at 1 µM [17] of the same compound?
Its activity at 1 µM is 100%.

What about the activity at 1 µM [18] of the same compound?
The activity at 1 µM was 97%.

And the activity at 1 µM [19]?
The activity at 1 µM was 81%.

And the activity at 1 µM [20]?
Its activity at 1 µM is 100%.

And the activity at 1 µM [21]?
Its activity at 1 µM is 100%.

And the activity at 1 µM [22]?
Its activity at 1 µM is 96%.

What about the activity at 1 µM [23] of the same compound?
Its activity at 1 µM is 79%.

What about the activity at 1 µM [24] of the same compound?
The activity at 1 µM was 100%.

And the activity at 1 µM [25]?
Its activity at 1 µM is 100%.

And the activity at 1 µM [26]?
The activity at 1 µM was 65%.

What about the activity at 1 µM [27] of the same compound?
Its activity at 1 µM is 100%.

What about the activity at 1 µM [28] of the same compound?
Its activity at 1 µM is 100%.

And the activity at 1 µM [29]?
The activity at 1 µM was 94%.

And the activity at 1 µM [30]?
The activity at 1 µM was 100%.

And the activity at 1 µM [31]?
Its activity at 1 µM is 100%.

What about the activity at 1 µM [32] of the same compound?
Its activity at 1 µM is 100%.

And the activity at 1 µM [33]?
Its activity at 1 µM is 91%.

What about the activity at 1 µM [34] of the same compound?
Its activity at 1 µM is 100%.

And the activity at 1 µM [35]?
The activity at 1 µM was 100%.

What about the activity at 1 µM [36] of the same compound?
The activity at 1 µM was 76%.

What about the activity at 1 µM [37] of the same compound?
Its activity at 1 µM is 86%.

What about the activity at 1 µM [38] of the same compound?
The activity at 1 µM was 85%.

And the activity at 1 µM [39]?
Its activity at 1 µM is 62%.

What about the activity at 1 µM [40] of the same compound?
The activity at 1 µM was 78%.

What about the activity at 1 µM [41] of the same compound?
Its activity at 1 µM is 59%.
